Measured values: patent US20210317134A1, “UBIQUITIN-SPECIFIC-PROCESSING PROTEASE 7 (USP7) MODULATORS AND USES THEREOF” (RAPT THERAPEUTICS, INC., priority 2019, published 2021)

target: USP7 (Homo sapiens, UniProt Q93009); test: USP7 inhibitory potency (Table 1); assay type: biochemical
Sequence (Q93009 whole entry): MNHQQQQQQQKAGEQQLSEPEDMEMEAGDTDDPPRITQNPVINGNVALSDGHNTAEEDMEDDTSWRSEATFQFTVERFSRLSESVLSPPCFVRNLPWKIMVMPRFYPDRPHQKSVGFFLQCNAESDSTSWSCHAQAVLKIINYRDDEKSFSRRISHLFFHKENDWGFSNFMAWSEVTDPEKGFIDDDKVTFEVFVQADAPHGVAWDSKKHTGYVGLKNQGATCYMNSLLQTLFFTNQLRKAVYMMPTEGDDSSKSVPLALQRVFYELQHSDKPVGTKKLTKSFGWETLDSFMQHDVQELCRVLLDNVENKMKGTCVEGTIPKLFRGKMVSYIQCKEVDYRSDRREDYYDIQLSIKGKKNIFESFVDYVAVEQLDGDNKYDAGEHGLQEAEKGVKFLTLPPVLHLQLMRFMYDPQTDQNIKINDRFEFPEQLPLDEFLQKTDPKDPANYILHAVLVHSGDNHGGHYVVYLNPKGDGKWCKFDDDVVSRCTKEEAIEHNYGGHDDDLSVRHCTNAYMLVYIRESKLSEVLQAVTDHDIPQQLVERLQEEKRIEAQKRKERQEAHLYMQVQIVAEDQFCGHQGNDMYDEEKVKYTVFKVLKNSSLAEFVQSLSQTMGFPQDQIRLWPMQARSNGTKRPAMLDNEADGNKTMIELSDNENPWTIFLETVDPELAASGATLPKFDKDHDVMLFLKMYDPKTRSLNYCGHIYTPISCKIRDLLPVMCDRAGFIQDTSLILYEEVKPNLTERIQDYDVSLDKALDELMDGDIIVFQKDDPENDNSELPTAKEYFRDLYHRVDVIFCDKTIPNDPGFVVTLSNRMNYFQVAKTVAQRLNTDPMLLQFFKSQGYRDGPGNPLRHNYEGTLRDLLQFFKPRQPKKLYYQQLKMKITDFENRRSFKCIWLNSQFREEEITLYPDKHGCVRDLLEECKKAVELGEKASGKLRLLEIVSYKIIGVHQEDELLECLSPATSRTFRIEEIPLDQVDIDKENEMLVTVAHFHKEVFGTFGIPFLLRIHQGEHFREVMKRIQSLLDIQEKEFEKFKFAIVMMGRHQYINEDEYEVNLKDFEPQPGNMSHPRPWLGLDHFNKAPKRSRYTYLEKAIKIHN

Question: How did the IC50 turn out when `O=C1CCC(=O)N1Cc1cc2nccc(-c3cc(Cl)cc4c3O[C@@H](c3onc5c3CNCC5)C4)n2n1` [(R)-1-((7-(5-chloro-2-(4,5,6,7-tetrahydroisoxazolo[4,3-c]pyridin-3-yl)-2,3-dihydrobenzofuran-7-yl)pyrazolo[1,5-a]pyrimidin-2-yl)methyl)pyrrolidine-2,5-dione] was run?
Answer: Its IC50 is < 1 µM.

Question: How did the IC50 turn out when `O=C1CCC(=O)N1Cc1cc2nccc(-c3cc(Cl)cc4c3O[C@@H](c3onc5c3CNCC5)C4)c2s1` [(R)-1-((7-(5-chloro-2-(4,5,6,7-tetrahydroisoxazolo[4,3-c]pyridin-3-yl)-2,3-dihydrobenzofuran-7-yl)thieno[3,2-b]pyridin-2-yl)methyl)pyrrolidine-2,5-dione] was run?
Answer: Its IC50 is < 1 µM.

Question: For `COc1ccc(CN2C(=O)CN(Cc3cc4nccc(-c5cc(Cl)cc6c5O[C@@H](C(=O)N5CCNCC5)C6)c4s3)C2=O)cc1` [(R)-1-((7-(5-chloro-2-(piperazine-1-carbonyl)-2,3-dihydrobenzofuran-7-yl)thieno[3,2-b]pyridin-2-yl)methyl)-3-(4-methoxybenzyl)imidazolidine-2,4-dione], which IC50 is on record?
Answer: The IC50 was < 1 µM.

Question: Which IC50 does the source give for `CN1CCN(Cc2cc3nccc(-c4cc(Cl)cc5c4O[C@@H](C(=O)N4CCNCC4)C5)c3s2)C1=O` [(R)-1-((7-(5-chloro-2-(piperazine-1-carbonyl)-2,3-dihydrobenzofuran-7-yl)thieno[3,2-b]pyridin-2-yl)methyl)-3-methylimidazolidin-2-one] here?
Answer: The IC50 was < 1 µM.

Question: For `O=C1CN(Cc2cc3nccc(-c4cc(Cl)cc5c4O[C@@H](C(=O)N4CCNCC4)C5)c3s2)C(=O)N1` [(R)-1-((7-(5-chloro-2-(piperazine-1-carbonyl)-2,3-dihydrobenzofuran-7-yl)thieno[3,2-b]pyridin-2-yl)methyl)imidazolidine-2,4-dione], which IC50 is on record?
Answer: The IC50 was < 1 µM.

Question: How did the IC50 turn out when `O=C([C@H]1Cc2cc(Cl)cc(-c3ccnc4cc(CN5C(=O)CCCC5=O)sc34)c2O1)N1CCNCC1` [(R)-1-((7-(5-chloro-2-(piperazine-1-carbonyl)-2,3-dihydrobenzofuran-7-yl)thieno[3,2-b]pyridin-2-yl)methyl)piperidine-2,6-dione] was run?
Answer: The IC50 was < 1 µM.

Question: `O=C1CCCN1Cc1cc2nccc(-c3cc(Cl)cc4c3O[C@@H](C(=O)N3CCNCC3)C4)c2s1` [(R)-1-((7-(5-chloro-2-(piperazine-1-carbonyl)-2,3-dihydrobenzofuran-7-yl)thieno[3,2-b]pyridin-2-yl)methyl)pyrrolidin-2-one] was tested. Which IC50 did it give?
Answer: The IC50 was < 1 µM.

Question: For `C[C@@H]1CCN(Cc2cc3nccc(-c4cc(Cl)cc5c4O[C@@H](C(=O)N4CCNCC4)C5)c3s2)C1=O` [(R)-1-((7-((R)-5-chloro-2-(piperazine-1-carbonyl)-2,3-dihydrobenzofuran-7-yl)thieno[3,2-b]pyridin-2-yl)methyl)-3-methylpyrrolidin-2-one], which IC50 is on record?
Answer: Its IC50 is < 1 µM.

Question: How did the IC50 turn out when `O=C([C@H]1Cc2cc(Cl)cc(-c3ccnc4cc(CCN5C(=O)c6ccccc6C5=O)sc34)c2O1)N1CCNCC1` [(R)-2-(2-(7-(5-chloro-2-(piperazine-1-carbonyl)-2,3-dihydrobenzofuran-7-yl)thieno[3,2-b]pyridin-2-yl)ethyl)isoindoline-1,3-dione] was run?
Answer: Its IC50 is < 1 µM.

Question: Which IC50 does the source give for `OCCN1CCc2noc([C@H]3Cc4cc(Cl)cc(-c5ncnc6ccoc56)c4O3)c2C1` [(R)-2-(3-(5-chloro-7-(furo[3,2-d]pyrimidin-4-yl)-2,3-dihydrobenzofuran-2-yl)-6,7-dihydroisoxazolo[4,3-c]pyridin-5(4H)-yl)ethan-1-ol] here?
Answer: The IC50 was 1 to 10 µM.

Question: With `CN(C)S(=O)(=O)CCc1cc2nccc(-c3cc(Cl)cc4c3O[C@@H](C(=O)N3CCNCC3)C4)c2s1` [(R)-2-(7-(5-chloro-2-(piperazine-1-carbonyl)-2,3-dihydrobenzofuran-7-yl)thieno[3,2-b]pyridin-2-yl)-N,N-dimethylethane-1-sulfonamide] as the compound, how does the IC50 read?
Answer: The IC50 was < 1 µM.

Question: How did the IC50 turn out when `NS(=O)(=O)CCc1cc2nccc(-c3cc(Cl)cc4c3O[C@@H](C(=O)N3CCNCC3)C4)c2s1` [(R)-2-(7-(5-chloro-2-(piperazine-1-carbonyl)-2,3-dihydrobenzofuran-7-yl)thieno[3,2-b]pyridin-2-yl)ethane-1-sulfonamide] was run?
Answer: The IC50 was < 1 µM.

Question: `O=C([C@H]1Cc2cc(Cl)cc(-c3ccnc4cc(CN5C(=O)c6ccccc6C5=O)sc34)c2O1)N1CCNCC1` [(R)-2-((7-(5-chloro-2-(piperazine-1-carbonyl)-2,3-dihydrobenzofuran-7-yl)thieno[3,2-b]pyridin-2-yl)methyl)isoindoline-1,3-dione] was tested. Which IC50 did it give?
Answer: Its IC50 is < 1 µM.

Question: With `CCc1cc2nccc(-c3cc(Cl)cc4c3O[C@@H](c3onc5c3CNCC5)C4)c2s1` [(R)-3-(5-chloro-7-(2-ethylthieno[3,2-b]pyridin-7-yl)-2,3-dihydrobenzofuran-2-yl)-4,5,6,7-tetrahydroisoxazolo[4,3-c]pyridine] as the compound, how does the IC50 read?
Answer: The IC50 was < 1 µM.

Question: How did the IC50 turn out when `Cc1cc2nccc(-c3cc(Cl)cc4c3O[C@@H](c3onc5c3CNCC5)C4)c2s1` [(R)-3-(5-chloro-7-(2-methylthieno[3,2-b]pyridin-7-yl)-2,3-dihydrobenzofuran-2-yl)-4,5,6,7-tetrahydroisoxazolo[4,3-c]pyridine] was run?
Answer: The IC50 was < 1 µM.

Question: How did the IC50 turn out when `Cc1nc(-c2cc(Cl)cc3c2O[C@@H](c2onc4c2CNCC4)C3)c2sccc2n1` [(R)-3-(5-chloro-7-(2-methylthieno[3,2-d]pyrimidin-4-yl)-2,3-dihydrobenzofuran-2-yl)-4,5,6,7-tetrahydroisoxazolo[4,3-c]pyridine] was run?
Answer: The IC50 was 10 to 30 µM.

Question: For `CCC1(CC)Cc2nccc(-c3cc(Cl)cc4c3O[C@@H](c3onc5c3CNCC5)C4)c2C1` [(R)-3-(5-chloro-7-(6,6-diethyl-6,7-dihydro-5H-cyclopenta[b]pyridin-4-yl)-2,3-dihydrobenzofuran-2-yl)-4,5,6,7-tetrahydroisoxazolo[4,3-c]pyridine], which IC50 is on record?
Answer: Its IC50 is 1 to 10 µM.

Question: For `Clc1cc2c(c(-c3ncnc4c3CCC4)c1)O[C@@H](c1onc3c1CNCC3)C2` [(R)-3-(5-chloro-7-(6,7-dihydro-5H-cyclopenta[d]pyrimidin-4-yl)-2,3-dihydrobenzofuran-2-yl)-4,5,6,7-tetrahydroisoxazolo[4,3-c]pyridine], which IC50 is on record?
Answer: Its IC50 is 10 to 30 µM.

Question: Which IC50 does the source give for `Fc1ccc2nccc(-c3cc(Cl)cc4c3O[C@@H](c3onc5c3CNCC5)C4)c2c1` [(R)-3-(5-chloro-7-(6-fluoroquinolin-4-yl)-2,3-dihydrobenzofuran-2-yl)-4,5,6,7-tetrahydroisoxazolo[4,3-c]pyridine] here?
Answer: The IC50 was < 1 µM.

Question: `COc1ccc2nccc(-c3cc(Cl)cc4c3O[C@@H](c3onc5c3CNCC5)C4)c2c1` [(R)-3-(5-chloro-7-(6-methoxyquinolin-4-yl)-2,3-dihydrobenzofuran-2-yl)-4,5,6,7-tetrahydroisoxazolo[4,3-c]pyridine] was tested. Which IC50 did it give?
Answer: Its IC50 is 10 to 30 µM.

Question: Which IC50 does the source give for `Cc1cc2ncnc(-c3cc(Cl)cc4c3O[C@@H](c3onc5c3CNCC5)C4)c2o1` [(R)-3-(5-chloro-7-(6-methylfuro[3,2-d]pyrimidin-4-yl)-2,3-dihydrobenzofuran-2-yl)-4,5,6,7-tetrahydroisoxazolo[4,3-c]pyridine] here?
Answer: The IC50 was < 1 µM.

Question: How did the IC50 turn out when `Cc1cc2ncnc(-c3cc(Cl)cc4c3O[C@@H](c3onc5c3CNCC5)C4)c2s1` [(R)-3-(5-chloro-7-(6-methylthieno[3,2-d]pyrimidin-4-yl)-2,3-dihydrobenzofuran-2-yl)-4,5,6,7-tetrahydroisoxazolo[4,3-c]pyridine] was run?
Answer: Its IC50 is < 1 µM.

Question: Which IC50 does the source give for `Cc1ccc(S(=O)(=O)N2Cc3nccc(-c4cc(Cl)cc5c4O[C@@H](c4onc6c4CNCC6)C5)c3C2)cc1` [(R)-3-(5-chloro-7-(6-tosyl-6,7-dihydro-5H-pyrrolo[3,4-b]pyridin-4-yl)-2,3-dihydrobenzofuran-2-yl)-4,5,6,7-tetrahydroisoxazolo[4,3-c]pyridine] here?
Answer: Its IC50 is 10 to 30 µM.

Question: How did the IC50 turn out when `CS(=O)(=O)c1ccc2c(-c3cc(Cl)cc4c3O[C@@H](c3onc5c3CNCC5)C4)ccnc2c1` [(R)-3-(5-chloro-7-(7-(methylsulfonyl)quinolin-4-yl)-2,3-dihydrobenzofuran-2-yl)-4,5,6,7-tetrahydroisoxazolo[4,3-c]pyridine] was run?
Answer: The IC50 was 1 to 10 µM.

Question: `FC(F)(F)c1ccc2c(-c3cc(Cl)cc4c3O[C@@H](c3onc5c3CNCC5)C4)ccnc2c1` [(R)-3-(5-chloro-7-(7-(trifluoromethyl)quinolin-4-yl)-2,3-dihydrobenzofuran-2-yl)-4,5,6,7-tetrahydroisoxazolo[4,3-c]pyridine] was tested. Which IC50 did it give?
Answer: Its IC50 is 1 to 10 µM.

Question: How did the IC50 turn out when `Clc1cc2c(c(-c3ncnc4cc(Cl)ccc34)c1)O[C@@H](c1onc3c1CNCC3)C2` [(R)-3-(5-chloro-7-(7-chloroquinazolin-4-yl)-2,3-dihydrobenzofuran-2-yl)-4,5,6,7-tetrahydroisoxazolo[4,3-c]pyridine] was run?
Answer: Its IC50 is 1 to 10 µM.

Question: For `Clc1cc2c(c(-c3ccnc4cc(Cl)ccc34)c1)O[C@@H](c1onc3c1CNCC3)C2` [(R)-3-(5-chloro-7-(7-chloroquinolin-4-yl)-2,3-dihydrobenzofuran-2-yl)-4,5,6,7-tetrahydroisoxazolo[4,3-c]pyridine], which IC50 is on record?
Answer: The IC50 was < 1 µM.

Question: `Fc1ccc2c(-c3cc(Cl)cc4c3O[C@@H](c3onc5c3CNCC5)C4)ccnc2c1` [(R)-3-(5-chloro-7-(7-fluoroquinolin-4-yl)-2,3-dihydrobenzofuran-2-yl)-4,5,6,7-tetrahydroisoxazolo[4,3-c]pyridine] was tested. Which IC50 did it give?
Answer: The IC50 was < 1 µM.

Question: `COc1ccc2c(-c3cc(Cl)cc4c3O[C@@H](c3onc5c3CNCC5)C4)ccnc2c1` [(R)-3-(5-chloro-7-(7-methoxyquinolin-4-yl)-2,3-dihydrobenzofuran-2-yl)-4,5,6,7-tetrahydroisoxazolo[4,3-c]pyridine] was tested. Which IC50 did it give?
Answer: The IC50 was < 1 µM.

Question: How did the IC50 turn out when `Fc1cccc2c(-c3cc(Cl)cc4c3O[C@@H](c3onc5c3CNCC5)C4)ccnc12` [(R)-3-(5-chloro-7-(8-fluoroquinolin-4-yl)-2,3-dihydrobenzofuran-2-yl)-4,5,6,7-tetrahydroisoxazolo[4,3-c]pyridine] was run?
Answer: Its IC50 is 1 to 10 µM.

Question: How did the IC50 turn out when `Clc1cc2c(c(-c3ncnc4ccoc34)c1)O[C@@H](c1onc3c1CNCC3)C2` [(R)-3-(5-chloro-7-(furo[3,2-d]pyrimidin-4-yl)-2,3-dihydrobenzofuran-2-yl)-4,5,6,7-tetrahydroisoxazolo[4,3-c]pyridine] was run?
Answer: Its IC50 is < 1 µM.

Question: `CS(=O)(=O)N1CCc2noc([C@H]3Cc4cc(Cl)cc(-c5ncnc6ccoc56)c4O3)c2C1` [(R)-3-(5-chloro-7-(furo[3,2-d]pyrimidin-4-yl)-2,3-dihydrobenzofuran-2-yl)-5-(methylsulfonyl)-4,5,6,7-tetrahydroisoxazolo[4,3-c]pyridine] was tested. Which IC50 did it give?
Answer: The IC50 was 1 to 10 µM.

Question: With `CCN1CCc2noc([C@H]3Cc4cc(Cl)cc(-c5ncnc6ccoc56)c4O3)c2C1` [(R)-3-(5-chloro-7-(furo[3,2-d]pyrimidin-4-yl)-2,3-dihydrobenzofuran-2-yl)-5-ethyl-4,5,6,7-tetrahydroisoxazolo[4,3-c]pyridine] as the compound, how does the IC50 read?
Answer: The IC50 was 1 to 10 µM.
